ChEMBL document CHEMBL5154881, “Discovery of First-in-Class TAK1-MKK3 Protein-Protein Interaction (PPI) Inhibitor (R)-STU104 for the Treatment of Ulcerative Colitis through Modulating TNF-α Production” (J Med Chem, 2022)
Active and inactive are the calls of the source. No cut-off for these calls is given here.

What was measured:
[1] = target: T1, Dual specificity mitogen-activated protein kinase kinase 3 (Homo sapiens) (UniProt P46734); test: Inhibition of human MMK3 at 50 uM using SAPK2a as substrate incubated for 120 mins in presence of [gamma-33P]-ATP by scintillation counting method relative to control
T1 sequence (whole entry): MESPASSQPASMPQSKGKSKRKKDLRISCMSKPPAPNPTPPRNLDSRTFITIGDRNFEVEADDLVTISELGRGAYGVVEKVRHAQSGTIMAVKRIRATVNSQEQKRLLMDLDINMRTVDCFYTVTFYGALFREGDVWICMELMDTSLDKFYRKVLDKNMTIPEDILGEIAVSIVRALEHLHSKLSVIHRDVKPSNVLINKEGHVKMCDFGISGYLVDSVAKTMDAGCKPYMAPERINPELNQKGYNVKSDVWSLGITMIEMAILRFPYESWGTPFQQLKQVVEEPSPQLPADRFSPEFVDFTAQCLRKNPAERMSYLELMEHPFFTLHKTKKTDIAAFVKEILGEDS

Mus musculus [2] = test: Antiinflammatory activity against DSS-induced C57BL/6 mouse model of acute ulcerative colitis assessed as inhibition ratio of TNF-alpha protein expression at 10 mg/kg, IG via gavage measured after 7 days by ELISA relative to control; assay type: functional; design: scale not given: the % may be the effect or the level left; details: time 7 day
[3] = Bioavailability in 12 hr starved C57 mouse […] measured for 0.083 to 24 hrs post-dose by LC-MS-MS analysis; assay type: ADME, organism-based; details: in vivo, time 0.083-24 hrs
[4] = target: T2, Mitogen-activated protein kinase kinase kinase 7 (Homo sapiens) (UniProt O43318); test: Inhibition of human TAK1 at 50 uM using casein as substrate incubated for 40 mins in presence of [gamma-33P]-ATP by scintillation counting method relative to control
T2 sequence (whole entry): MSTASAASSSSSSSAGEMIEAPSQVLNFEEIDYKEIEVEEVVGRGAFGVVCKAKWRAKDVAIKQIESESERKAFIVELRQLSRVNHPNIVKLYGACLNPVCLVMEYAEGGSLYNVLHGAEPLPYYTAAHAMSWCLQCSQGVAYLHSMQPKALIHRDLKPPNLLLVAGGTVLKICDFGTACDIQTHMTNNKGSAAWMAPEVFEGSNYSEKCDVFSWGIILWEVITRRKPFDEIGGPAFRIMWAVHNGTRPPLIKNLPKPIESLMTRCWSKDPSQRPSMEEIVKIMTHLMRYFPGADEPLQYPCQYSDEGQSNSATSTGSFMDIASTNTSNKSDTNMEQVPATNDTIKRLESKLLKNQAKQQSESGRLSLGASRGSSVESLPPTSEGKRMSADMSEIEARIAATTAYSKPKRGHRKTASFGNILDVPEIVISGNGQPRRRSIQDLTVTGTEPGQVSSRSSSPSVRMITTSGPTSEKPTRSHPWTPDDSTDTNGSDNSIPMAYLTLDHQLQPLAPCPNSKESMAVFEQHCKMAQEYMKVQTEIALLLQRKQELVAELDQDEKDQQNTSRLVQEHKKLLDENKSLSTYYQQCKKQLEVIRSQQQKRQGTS

[5] = target: T3, Dual specificity mitogen-activated protein kinase kinase 3 (Homo sapiens, UniProt P46734); test: Binding affinity to CM5 chip immobilized human MKK3 (20 to 347 residues) expressed in Escherichia coli BL21 (DE3) assessed as dissociation constant, Kd by surface plasmon resonance analysis
T3 sequence (P46734 whole entry): T1 sequence (whole entry)

Mus musculus [6] = test: Antiinflammatory activity against IL-10-/- C57BL/6 mouse model of ulcerative colitis assessed as inhibition ratio of IL-23 protein expression at 3 mg/kg, IG via gavage and measured after 8 weeks by ELISA relative to control; assay type: functional; design: scale not given: the % may be the effect or the level left
Mus musculus [7] = test: Anti-ulcerative colitis activity in IL-10-/- C57BL/6 mouse model of ulcerative colitis assessed as histopathological score recovery ratio at 10 mg/kg, IG via gavage for 8 weeks relative to control; assay type: functional
Mus musculus [8] = test: Anti-ulcerative colitis activity in IL-10-/- C57BL/6 mouse model of ulcerative colitis assessed as colon length recovery ratio at 10 mg/kg, IG via gavage for 8 weeks relative to control; assay type: functional
[9] = MRT (0 to infinity) in 12 hr starved C57 mouse at 30 mg/kg, po measured for 0.083 to 24 hrs post-dose by LC-MS-MS analysis; assay type: ADME, organism-based; details: in vivo, time 0.083-24 hrs
Mus musculus [10] = test: Antiinflammatory activity against DSS-induced C57BL/6 mouse model of acute ulcerative colitis assessed as inhibition of IL-6 mRNA expression in colon tissue administered intragastrically via gavage measured after 7 days by RT-qPCR analysis; assay type: functional, organism-based; details: route ig, time 7.0 day, DDE = dose-dependent effect
RAW264.7 [11] = test: Inhibition of TAK1-MKK3 protein-protein interaction in LPS-treated mouse RAW264.7 cells assessed as reduction in TAK1 levels at 3.13 to 12.5 umol/L incubated for 30 mins by immunoprecipitation method; assay type: cell-based; details: dose 3.13-12.5 µmol/L
Mus musculus [12] = test: Antiinflammatory activity against IL-10-/- C57BL/6 mouse model of ulcerative colitis assessed as inhibition ratio of IL-6 mRNA expression in colon tissue at 1 mg/kg, IG via gavage and measured after 8 weeks by RT-qPCR analysis relative to control; assay type: functional; design: scale not given: the % may be the effect or the level left
[13] = Cmax in 12 hr starved C57 mouse at 5 mg/kg, iv measured for 0.083 to 24 hrs post-dose by LC-MS-MS analysis; assay type: ADME, organism-based; design: time upper 24 hrs, time lower 0.083 hrs, dose 5 mg/kg, route iv; details: in vivo
Mus musculus [14] = test: Anti-ulcerative colitis activity in IL-10-/- C57BL/6 mouse model of ulcerative colitis assessed as histopathological score recovery ratio at 3 mg/kg, IG via gavage for 8 weeks relative to control; assay type: functional
RAW264.7 [15] = test: Inhibition of LPS-induced TNFalpha production in mouse RAW264.7 cells at 50 uM preincubated for 2 hrs followed by LPS treatment for 24 hrs by RT-qPCR analysis relative to control; assay type: functional; details: time 26 hrs
Mus musculus [16] = test: Antiinflammatory activity against IL-10-/- C57BL/6 mouse model of ulcerative colitis assessed as inhibition ratio of IL-23 protein expression at 1 mg/kg, IG via gavage and measured after 8 weeks by ELISA relative to control; assay type: functional; design: scale not given: the % may be the effect or the level left
[17] = target: T1, Dual specificity mitogen-activated protein kinase kinase 3 (Homo sapiens); test: Binding affinity to CM5 chip immobilized human MKK3 (20 to 347 residues) expressed in Escherichia coli BL21 (DE3) assessed as association constant, Ka by surface plasmon resonance analysis

Question: Which results are given for `COc1ccc([C@H]2CC(=O)c3cc(OC)cc(OC)c32)cc1`?
Answer: inhibition [1]: < 10%; Activity (Mus musculus [2]): 58.1%; bioavailability [3]: 33%; inhibition [4]: < 10%; Kd [5]: 3.61 10^-3/s; Activity (Mus musculus [6]): 58.2%; Activity (Mus musculus [7]): 56.7%; Activity (Mus musculus [8]): 41.2%; MRT inf [9]: 12.5 h; Activity (Mus musculus [10]): Dde; inhibition (RAW264.7 [11]): Active; Activity (Mus musculus [12]): 26.3%; Cmax [13]: 2.92 µg/mL; Activity (Mus musculus [14]): 50.5%; inhibition at 50 µM (RAW264.7 [15]): 62.3%; Activity (Mus musculus [16]): 39.6%; Ka [17]: 5.08 10^4/Ms
